Source: patent publication US20060281899A1, “Mutants of biotin binding protein” (priority 2002, published 2006)
Where two headings read alike, the source gives them in different places.

How the values were obtained:
[1] = IAsys optical biosensor, affinity of avidin and avidin mutants towards 2-iminobiotin; type: binding
Procedure: Reversibility of biotin binding was measured for avidin and the mutants with an IAsys optical biosensor (Laitinen, O. H. et al., FEBS Lett 461 (1999), 52-8). Protein samples were allowed to bind to a biotin-aminosilane cuvette in PBS containing 1 M NaCl. After the equilibrium was reached, biotin-containing buffer was added and the dissociation of the proteins was monitored. The affinities of the proteins towards 2-iminobiotin were determined with an IAsys optical biosensor (Marttila, A. T. et al. FEBS Lett 441 (1998), 313-7). Biotin-binding activity of the mutants Avd-ci and Avd-ccci after heat treatment was studied with a microtiter plate assay. Protein samples, 5 μg/ml concentration in PBS, were heated for various time periods at 99.9° C. and then chilled on ice. The samples were transferred to a Nunc Maxisorp-plate and incubated at 37° C. for 2 h. The wells were washed three times with PBS-Tween (0.05% v/v). After that the wells were blocked with PBS containing 1% BSA at 37° C. for 30 minutes and washed again with PBS-Tween. Next, biotinylated alkaline phosphatase (Sigma) in PBS, 1% BSA was added and incubated at 37° C. for one hour. Once again, the wells were washed with PBS-Tween and the PNPP substrate in DEA buffer (1 mg/ml) was applied to the wells. The absorbances at 405 nm were measured after incubation for 45 minutes.

[2] = Microparticle analysis, BF523-biotin binding of protein-coated particles before and after 95° C.; type: physicochemical; details: 30 minutes at 95° C., BF523-biotin added after treatment (iv)
Procedure: Before the analysis, 3.22 μm microparticles with COOH-group/0.852 nm2 (Bangs laboratories, Fishers, Ind., USA) were covalently coated with biotin-binding proteins. Microparticles (1*108 pcs) were washed twice with H20 by sequential centrifuging (5000 g; 3 min) and aspiration, and resuspended in 200 μl PB buffer (50 mM NaH2PO4-HCl, pH 3.0). A solution of biotin binding protein (50 μl, 1 mg/ml or 3 mg/ml, 50 mM Na-acetate pH 4.0) was added while vortexing. The suspension was incubated for 1 h (500 rpm; 23° C.). Particles were washed with PB and with MES buffer (50 mM, pH 5.5) and suspended in MES buffer (200 μl). […] After the last wash particles were suspended in 100 μl volume and concentration of particles was determined with Multisizer 3 Coulter Counter (Beckman Coulter, Fullerton, Calif., USA). […]
Microparticles (5*106 pcs) were suspended in 900 μl of assay buffer and aliquoted in […] PCR-tubes (i-v; 180 μl/aliquot). […] The samples were measured with ArcDia TPX PlateReader (ArcDia Ltd.) (Soini, E., Meltola, N. J., Soini, A. E., Soukka, J., Soini, J. T. & Hanninen, P. E. (2000) Biochem. Soc. Trans. 28, 70-74). […]
The fluorescence emission efficiencies of the BF523-biotin conjugate (200 nM) was determined before and after the incubation (30 min) at 95° C. […]

[3] = 2-iminobiotin cuvette, cited from earlier work
[4] = 2-iminobiotin surface, values from Hytönen 2003, cited from earlier work
[5] = biotin cuvette; values from Hytönen 2003; cited from earlier work

wt Avidin: Wild-type chicken avidin (SEQ ID NO 1), purified from chicken egg-white [reference compound]
Kd [1]: 25 nM | original signal after heat treatment of coated particles [2]: 9% | Kd ([3]; avidin values from Laitinen 2002 / Marttila 2000, read-out: Kd calculated from the equilibrium response data): 17 nM | kass ([3]; avidin values from literature): (1.6 ± 0.7) × 10^4 M^−1 s^−1 | Kd ([3]; avidin values from literature, read-out: Kd calculated directly from the binding curves): 20 nM | kass [4]: (5.5 ± 0.5) × 10^4 M^−1s^−1 | kdiss [4]: (1.9 ± 1.4) × 10^−3 s^−1 | Kd ([4]; read-out: Kd detected directly from the binding curves): 34 nM | Kd ([4]; read-out: Kd detected from the equilibrium response data): 22 nM | Reversibility of binding to biotin [5]: 4 ± 2%
